From PMC9329436, “Optimization of the 4-anilinoquin(az)oline scaffold as epidermal growth factor receptor (EGFR) inhibitors for chordoma utilizing a toxicology profiling assay platform” (Scientific Reports, 2022)
Where two headings read alike, the source gives them in different places.

How the values were obtained:
Format in all cases: biochemical
[1] = target: T1, 320 wild-type protein kinases (Homo sapiens, UniProt Q9H2K8); details: kinase TAOK3, singlicate
T1 sequence (Q9H2K8 1-898): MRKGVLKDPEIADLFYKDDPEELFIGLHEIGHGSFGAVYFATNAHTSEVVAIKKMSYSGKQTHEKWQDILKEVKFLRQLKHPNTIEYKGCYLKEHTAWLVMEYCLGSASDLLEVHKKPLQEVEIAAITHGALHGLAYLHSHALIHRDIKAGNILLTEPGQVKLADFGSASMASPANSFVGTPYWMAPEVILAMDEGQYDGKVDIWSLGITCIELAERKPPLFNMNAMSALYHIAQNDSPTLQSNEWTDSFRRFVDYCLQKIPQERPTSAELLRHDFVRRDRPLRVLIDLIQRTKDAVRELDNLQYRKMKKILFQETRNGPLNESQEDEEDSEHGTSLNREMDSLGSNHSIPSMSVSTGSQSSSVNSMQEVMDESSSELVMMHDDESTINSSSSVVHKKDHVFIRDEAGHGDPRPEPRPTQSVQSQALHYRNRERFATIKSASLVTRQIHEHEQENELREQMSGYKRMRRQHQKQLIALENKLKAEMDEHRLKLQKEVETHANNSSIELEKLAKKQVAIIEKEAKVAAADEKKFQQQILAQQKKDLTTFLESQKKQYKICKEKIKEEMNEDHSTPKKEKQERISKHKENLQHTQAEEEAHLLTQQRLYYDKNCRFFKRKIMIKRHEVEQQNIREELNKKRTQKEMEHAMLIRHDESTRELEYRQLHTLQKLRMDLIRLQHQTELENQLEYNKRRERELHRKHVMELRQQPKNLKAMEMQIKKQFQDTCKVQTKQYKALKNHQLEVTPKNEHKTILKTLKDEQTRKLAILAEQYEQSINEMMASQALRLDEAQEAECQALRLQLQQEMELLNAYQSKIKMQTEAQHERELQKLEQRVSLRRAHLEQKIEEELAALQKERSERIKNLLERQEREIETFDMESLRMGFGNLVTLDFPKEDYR
Source text: (§1) Table S4. Profiling of two compounds at two concentrations against 320 wild-type protein kinases; singlicate measurement; Residual activities (% of control).

[2] = target: T2, 320 wild-type protein kinases (Homo sapiens, UniProt Q9Y2U5); details: singlicate
T2 sequence (Q9Y2U5 1-619): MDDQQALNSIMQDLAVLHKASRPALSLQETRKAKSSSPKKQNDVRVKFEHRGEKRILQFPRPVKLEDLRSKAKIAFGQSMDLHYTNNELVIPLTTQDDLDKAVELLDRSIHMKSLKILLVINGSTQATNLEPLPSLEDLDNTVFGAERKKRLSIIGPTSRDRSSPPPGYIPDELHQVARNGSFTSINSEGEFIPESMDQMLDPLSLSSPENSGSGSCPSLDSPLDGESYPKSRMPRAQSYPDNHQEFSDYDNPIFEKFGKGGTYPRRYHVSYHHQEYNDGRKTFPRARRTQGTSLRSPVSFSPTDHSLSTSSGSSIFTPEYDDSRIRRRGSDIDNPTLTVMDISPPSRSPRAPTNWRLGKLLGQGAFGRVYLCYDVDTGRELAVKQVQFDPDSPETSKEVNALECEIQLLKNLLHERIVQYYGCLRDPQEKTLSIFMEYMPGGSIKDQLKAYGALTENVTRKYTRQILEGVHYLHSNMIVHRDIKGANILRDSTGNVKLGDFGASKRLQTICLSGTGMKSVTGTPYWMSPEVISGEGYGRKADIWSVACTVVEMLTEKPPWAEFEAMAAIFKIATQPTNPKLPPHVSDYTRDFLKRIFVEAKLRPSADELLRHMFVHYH
Source text: as §1

[3] = target: T3, 320 wild-type protein kinases (Homo sapiens, UniProt P43403); details: kinase ZAP70, singlicate
T3 sequence (P43403 1-619): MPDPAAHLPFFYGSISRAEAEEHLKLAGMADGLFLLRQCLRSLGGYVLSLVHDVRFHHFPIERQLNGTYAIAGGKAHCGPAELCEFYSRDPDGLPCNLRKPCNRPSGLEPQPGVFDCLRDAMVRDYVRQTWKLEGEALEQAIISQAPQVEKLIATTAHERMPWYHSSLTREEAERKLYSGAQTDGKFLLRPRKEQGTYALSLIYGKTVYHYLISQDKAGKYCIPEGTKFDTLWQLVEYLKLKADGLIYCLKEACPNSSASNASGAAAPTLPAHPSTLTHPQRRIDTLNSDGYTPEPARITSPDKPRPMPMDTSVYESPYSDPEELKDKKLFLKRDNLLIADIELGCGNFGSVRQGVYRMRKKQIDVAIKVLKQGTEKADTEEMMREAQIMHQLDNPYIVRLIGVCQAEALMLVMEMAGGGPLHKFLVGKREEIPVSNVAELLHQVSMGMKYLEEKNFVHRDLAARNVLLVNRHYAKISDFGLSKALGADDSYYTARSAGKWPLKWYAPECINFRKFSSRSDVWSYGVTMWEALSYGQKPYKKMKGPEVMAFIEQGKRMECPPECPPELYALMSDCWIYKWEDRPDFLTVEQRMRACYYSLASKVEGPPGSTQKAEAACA
Source text: as §1

[4] = target: T4, 320 wild-type protein kinases (Homo sapiens, UniProt P36897); details: kinase TGFB-R1, singlicate
T4 sequence (P36897 34-503): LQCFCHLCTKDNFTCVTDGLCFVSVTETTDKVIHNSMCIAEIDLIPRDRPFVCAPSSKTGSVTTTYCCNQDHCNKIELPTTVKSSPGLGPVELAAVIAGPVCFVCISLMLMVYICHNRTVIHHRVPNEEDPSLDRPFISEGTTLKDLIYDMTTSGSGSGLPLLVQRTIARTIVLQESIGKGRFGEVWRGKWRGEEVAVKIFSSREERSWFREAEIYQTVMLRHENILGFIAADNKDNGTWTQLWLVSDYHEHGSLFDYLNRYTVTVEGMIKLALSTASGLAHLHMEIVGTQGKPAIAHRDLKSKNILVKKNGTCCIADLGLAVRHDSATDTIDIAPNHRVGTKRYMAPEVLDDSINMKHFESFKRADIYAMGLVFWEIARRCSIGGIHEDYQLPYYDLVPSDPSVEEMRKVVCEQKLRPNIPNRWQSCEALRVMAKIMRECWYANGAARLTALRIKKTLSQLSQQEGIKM
Source text: as §1

Compound | Residual activity, TAOK3 ([1]; assay conc. 1.0E-06 M) | Residual activity, TAOK3 ([1]; assay conc. 1.0E-07 M) | Residual activity ([2]; MEKK2, 1.0E-06 M) | Residual activity ([2]; MEKK2, 1.0E-07 M) | Residual activity, ZAP70 ([3]; assay conc. 1.0E-06 M) | Residual activity, ZAP70 ([3]; assay conc. 1.0E-07 M) | Residual activity, TGFB-R1 ([4]; assay conc. 1.0E-06 M) | Residual activity, TGFB-R1 ([4]; assay conc. 1.0E-07 M)
C#Cc1cc(Nc2ncnc3cc(I)ccc23)ccc1Cl [Compound 41] | 93 % of control | 87 % of control | 93 % of control | 112 % of control | 103 % of control | 111 % of control | 81 % of control | 86 % of control
C#Cc1cc(Nc2ncnc3cc(OC)c(OC)cc23)ccc1Cl [Compound 45] | 106 % of control | 92 % of control | 107 % of control | 120 % of control | 104 % of control | 100 % of control | 75 % of control | 84 % of control
